Laboratory results: patent US9936700B2, “Substituted quinoxaline derivatives as pest control agent” (BAYER CROPSCIENCE AKTIENGESELLSCHAFT, priority 2013, dated 2018)

Columns and labels:
[1] = log P by reversed-phase HPLC (EEC Directive 79/831 Annex V.A8); assay type: physicochemical; conditions: for chromatographic logP: reversed-phase C18 HPLC column, read-out: logP [a] = log P (HCOOH)
Excerpt: NMR data and log P values: log P (HCOOH)=log P[a] log P (neutral)=log P[b]
^[a] […] Called log P (HCOOH) in the table.
^[b] […] Called log P (neutral) in the table.

Myzus persicae = Myzus persicae spray test (MYZUPE); assay type: in vivo; conditions: Chinese cabbage leaf discs, after 6 days
Procedure: Myzus persicae—spray test (MYZUPE)
• Solvent: 78 parts by weight of acetone • 1.5 parts by weight of dimethylformamide • Emulsifier: 0.5 part by weight of alkylaryl polyglycol ether
After 6 days, the efficacy in % is determined. 100% means that all the aphids have been killed; 0% means that no aphids have been killed.

Aphis gossypii = Aphis gossypii spray test; assay type: in vivo; conditions: 20 ppm, cotton plants, after 6 days
Procedure: Aphis gossypii—spray test
• Solvent: 7 parts by weight of dimethylformamide • Emulsifier: alkylaryl polyglycol ether
To produce further test concentrations, the preparation is diluted with emulsifier-containing water. If the addition of ammonium salts or/and penetrants is required, these are each added in a concentration of 1000 ppm to the formulation solution.
After 6 days, the kill in % is determined. 100% means that all the aphids have been killed; 0% means that no aphids have been killed.

Tetranychus urticae = Tetranychus urticae spray test, OP-resistant (TETRUR); assay type: in vivo; conditions: 500 g/ha, bean leaf discs, after 6 days
Procedure: Tetranychus urticae—spray test, OP-resistant (TETRUR)
• Solvent: 78.0 parts by weight of acetone • 1.5 parts by weight of dimethylformamide • Emulsifier: 0.5 part by weight of alkylaryl polyglycol ether
After 6 days, the efficacy in % is determined. 100% means that all the spider mites have been killed; 0% means that no spider mites have been killed.

[2] = acidic range, pH 2.7, 0.1% aqueous formic acid/acetonitrile
[3] = neutral range, pH 7.8, aqueous ammonium hydrogencarbonate/acetonitrile

CCSc1ccccc1-c1nc2ccc(C(F)(F)F)cc2nc1Cl [Example I-3, 3-Chloro-2-[2-(ethylsulfanyl)phenyl]-6-(trifluoromethyl)quinoxaline]
chromatographic logP [1, 2]: 5.2

FC1(F)Oc2cc3ncc(-c4ccc(C(F)(F)F)cc4)nc3cc2O1 [Example I-5, 2,2-Difluoro-6-[4-(trifluoromethyl)phenyl][1,3]dioxolo [4,5-g]quinoxaline]
chromatographic logP [1, 2]: 5.02

[O-][n+]1cc(-c2ccc(C(F)(F)F)cc2)nc2cc3c(cc21)OC(F)(F)O3 [Example I-6, 2,2-Difluoro-7-[4-(trifluoromethyl)phenyl][1,3]dioxolo [4,5-g]quinoxaline 5-oxide]
chromatographic logP [1, 2]: 4.12

FC(F)(F)c1ccc2nc(-c3ccncc3Cl)cnc2c1 [Example I-10]
logP [a] = log P (HCOOH) ([1]; pH 2.7): 3.27
efficacy (aphids killed) (Myzus persicae; 100 g/ha): 100%
efficacy (kill of aphids) (Aphis gossypii): 85%

FC(F)(F)c1ccc2nc(-c3cncnc3)cnc2c1 [Example I-12]
logP [a] = log P (HCOOH) ([1]; pH 2.7): 2.33
efficacy (spider mites killed) (Tetranychus urticae): 90%

Cc1cnccc1-c1cnc2ccc(S(C)(=O)=O)cc2n1 [Example I-13]
logP [a] = log P (HCOOH) ([1]; pH 2.7): 0.72
logP [b] = log P (neutral) ([1]; pH 7.8): 1.34

CSc1ccccc1-c1cnc2cc(C(F)(F)F)ccc2n1 [Example I-16]
logP [a] = log P (HCOOH) ([1]; pH 2.7): 4.45
logP [b] = log P (neutral) ([1]; pH 7.8): 4.31

Cc1cnccc1-c1cnc2cc(Cl)ccc2n1 [Example I-17]
logP [a] = log P (HCOOH) ([1]; pH 2.7): 1.69
logP [b] = log P (neutral) ([1]; pH 7.8): 2.58

FC(F)(F)c1ccc2nc(-c3ccccn3)cnc2c1 [Example I-18]
logP [a] = log P (HCOOH) [1, 2]: 3.72
logP [b] = log P (neutral) [1, 3]: 3.75
efficacy (spider mites killed) (Tetranychus urticae): 90%
efficacy (aphids killed) (Myzus persicae; 500 g/ha): 90%

Clc1ccc2nc(-c3cncnc3)cnc2c1 [Example I-19]
logP [a] = log P (HCOOH) ([1]; pH 2.7): 2.01

FC(F)(F)c1ccccc1-c1cnc2cc(Cl)ccc2n1 [Example I-21]
logP [a] = log P (HCOOH) ([1]; pH 2.7): 4.17
efficacy (spider mites killed) (Tetranychus urticae): 100%

CSc1ccccc1-c1cnc2cc(Cl)ccc2n1 [Example I-22]
logP [a] = log P (HCOOH) ([1]; pH 2.7): 4.08
efficacy (aphids killed) (Myzus persicae; 500 g/ha): 90%

CCSc1ccccc1-c1cnc2cc(Cl)ccc2n1 [Example I-23]
logP [a] = log P (HCOOH) ([1]; pH 2.7): 4.56

CCOc1ncccc1-c1cnc2cc(C(F)(F)F)ccc2n1 [Example I-24]
logP [a] = log P (HCOOH) ([1]; pH 2.7): 4.59
efficacy (spider mites killed) (Tetranychus urticae): 100%

FC(F)(F)c1ccc2nc(-c3ccc(Cl)cc3)cnc2c1 [Example I-25]
logP [a] = log P (HCOOH) [1, 2]: 4.99
efficacy (spider mites killed) (Tetranychus urticae): 90%

CCc1cnccc1-c1cnc2ccc(C(F)(F)F)cc2n1 [Example I-27]
efficacy (spider mites killed) (Tetranychus urticae): 90%

CS(=O)(=O)c1ccccc1-c1cnc2cc(Cl)ccc2n1 [Example I-28]
logP [a] = log P (HCOOH) ([1]; pH 2.7): 2.52
logP [b] = log P (neutral) ([1]; pH 7.8): 2.52

CC[S+]([O-])c1ccccc1-c1cnc2cc(Cl)ccc2n1 (stereo not shown) [Example I-31]
logP [a] = log P (HCOOH) ([1]; pH 2.7): 2.66
logP [b] = log P (neutral) ([1]; pH 7.8): 2.65
efficacy (aphids killed) (Myzus persicae; 500 g/ha): 90%

CCSc1ccccc1-c1cnc2ccc(S(C)(=O)=O)cc2n1 [Example I-35]
logP [a] = log P (HCOOH) ([1]; pH 2.7): 2.85
logP [b] = log P (neutral) ([1]; pH 7.8): 2.78

Cc1cnccc1-c1nc2ccc(C(F)(F)F)cc2nc1Cl [Example I-37]
logP [a] = log P (HCOOH) ([1]; pH 2.7): 2.94

Cc1cnccc1-c1nc2cc(C(F)(F)F)ccc2nc1Cl [Example I-38]
logP [a] = log P (HCOOH) ([1]; pH 2.7): 2.88

Clc1ccc2nc(-c3ccncc3Cl)cnc2c1 [Example I-39]
logP [a] = log P (HCOOH) ([1]; pH 2.7): 2.99

Cc1cnccc1-c1cnc2cc(Cl)c(Cl)cc2n1 [Example I-41]
logP [a] = log P (HCOOH) ([1]; pH 2.7): 2.51
logP [b] = log P (neutral) ([1]; pH 7.8): 3.29

CCSc1ccccc1-c1cnc2cc(Cl)c(Cl)cc2n1 [Example I-42]
logP [a] = log P (HCOOH) ([1]; pH 2.7): 5.38
logP [b] = log P (neutral) ([1]; pH 7.8): 5.48

Cc1ccsc1-c1cnc2ccc(C(F)(F)F)cc2n1 [Example I-43]
logP [a] = log P (HCOOH) ([1]; pH 2.7): 4.65
logP [b] = log P (neutral) ([1]; pH 7.8): 4.66
efficacy (spider mites killed) (Tetranychus urticae): 90%

Cc1cscc1-c1cnc2ccc(C(F)(F)F)cc2n1 [Example I-44]
logP [a] = log P (HCOOH) ([1]; pH 2.7): 4.57

Cc1cscc1-c1cnc2cc(C(F)(F)F)ccc2n1 [Example I-45]
logP [a] = log P (HCOOH) ([1]; pH 2.7): 4.57

Cc1ccccc1-c1cnc2cc(C(F)(F)F)ccc2n1 [Example I-46]
logP [a] = log P (HCOOH) [1, 2]: 4.48
efficacy (spider mites killed) (Tetranychus urticae): 90%

Cc1ccccc1-c1cnc2ccc(C(F)(F)F)cc2n1 [Example I-47]
logP [a] = log P (HCOOH) [1, 2]: 4.47
logP [b] = log P (neutral) [1, 3]: 4.41
